Literature values in US20260275225A1, “LIQUID ALKYLATED PHENYL-ALPHA-NAP[…] REDUCED AQUATIC TOXICITY” (BASF SE, priority 2023, published 2026).
In brackets after ≈: the same amount, converted by molar mass.

Test system: daphnids
Conditions: OECD Test 202; from commercially available Amine A safety data sheets

c1ccc(Nc2cccc3ccccc23)cc1 [Amine A, n-Phenyl-1-naphthylamine]
EC50: 0.32 µg/mL (≈ 1.46 µM)
